Where “and” joins values, the source holds several entries; their conditions need not be identical. Identical values can stand only once. Inconclusive results and toxic doses are left out. How the source made its calls: active means survival T/C of 150% or more; inactive means T/C below 125% in these data.
Test system: P388 leukemia ip, CD2F1 mice, survival T/C
Assay: NCI In Vivo Anticancer Drug Screen. Data for tumor model P388 Leukemia (intraperitoneal) in CD2F1 (CDF1) mice
Conditions: endpoint: median survival time, higher = longer survival
Procedure, shortened: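 Mice carrying the transplanted tumor received test compound or vehicle. Survival was recorded in each group, and the value is the treated-group measurement divided by that of the vehicle-treated control group.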

[1] = dose: 50.0 mg/kg/injection, schedule: Q01DX005 (ip), vehicle: saline with Tween-80
[2] = dose: 100.0 mg/kg/injection, schedule: Q01DX005 (ip), vehicle: saline with Tween-80
[3] = dose: 200.0 mg/kg/injection, schedule: Q01DX005 (ip), vehicle: saline with Tween-80
[4] = dose: 60.0 mg/kg/injection, schedule: Q01DX005 (ip), vehicle: saline with Tween-80
[5] = dose: 120.0 mg/kg/injection, schedule: Q01DX005 (ip), vehicle: saline with Tween-80
[6] = dose: 240.0 mg/kg/injection, schedule: Q01DX005 (ip), vehicle: saline with Tween-80

Measured: T/C

C[N+](C)(C)CCCSc1nc2ccccc2[nH]1
inactive: dose: 0.13 mg/kg/injection, schedule: Q01DX009 (ip), vehicle: saline 95 % of control | dose: 0.25 mg/kg/injection, schedule: Q01DX009 (ip), vehicle: saline 103 % of control | dose: 0.5 mg/kg/injection, schedule: Q01DX009 (ip), vehicle: saline 103 % of control | dose: 1.0 mg/kg/injection, schedule: Q01DX009 (ip), vehicle: saline 104 % of control

CCCCCCCCSCc1ccc(Nc2ccc(Nc3ccc(CSCCCCCCCC)cc3)cc2)cc1
inactive: dose: 50.0 mg/kg/injection, schedule: Q01DX006 (ip), vehicle: other 102 % of control | dose: 50.0 mg/kg/injection, schedule: Q01DX009 (ip), vehicle: acetone 101 % of control | dose: 100.0 mg/kg/injection, schedule: Q01DX006 (ip), vehicle: other 116 % of control | dose: 100.0 mg/kg/injection, schedule: Q01DX009 (ip), vehicle: acetone 107 % of control | dose: 200.0 mg/kg/injection, schedule: Q01DX006 (ip), vehicle: other 117 % of control

O=C(O)C1(N(CCO)CCO)CCCC1
inactive: dose: 50.0 mg/kg/injection, schedule: Q01DX005 (ip), vehicle: saline 104 % of control | dose: 100.0 mg/kg/injection, schedule: Q01DX005 (ip), vehicle: saline 100 % of control | dose: 200.0 mg/kg/injection, schedule: Q01DX005 (ip), vehicle: saline 106 % of control

O=P(OCC(F)(F)F)(OCC(F)(F)F)c1ccccc1
inactive: [1] 102 % of control | [2] 101 % of control | [3] 96 % of control

O=C(CCl)NNC1=Nc2ccc(Cl)cc2SC1
inactive: [4] 101 % of control | [5] 104 % of control | [6] 93 % of control

O=C(Oc1ccccc1)c1cc(O)c(O)c(O)c1
inactive: dose: 25.0 mg/kg/injection, schedule: Q01DX005 (ip), vehicle: saline with Tween-80 100 % of control and 95 % of control | [1] 100 % of control and 101 % of control | [2] 99 % of control and 100 % of control | [3] 101 % of control and 116 % of control | dose: 400.0 mg/kg/injection, schedule: Q01DX005 (ip), vehicle: saline with Tween-80 109 % of control

CCOc1cc2c(cc1C/C=C/c1ccc(OC)cc1)OCO2
inactive: [4] 103 % of control | [5] 103 % of control | [6] 113 % of control

C=C1[C@@H](O)C[C@@H]2C[C@@]3(C)[C@H](C(C)(C)C[C@@H]3O)C12O (some centres undefined)
inactive: dose: 3.75 mg/kg/injection, schedule: Q01DX005 (ip), vehicle: saline 98 % of control | dose: 7.5 mg/kg/injection, schedule: Q01DX005 (ip), vehicle: saline 100 % of control | dose: 15.0 mg/kg/injection, schedule: Q01DX005 (ip), vehicle: saline 98 % of control

CCOC(=O)NC(=S)Nc1ccn(C)c1
inactive: dose: 50.0 mg/kg/injection, schedule: Q04DX003 (ip), vehicle: saline with Tween-80 99 % of control and 101 % of control | dose: 100.0 mg/kg/injection, schedule: Q04DX003 (ip), vehicle: saline with Tween-80 100 % of control and 94 % of control and 97 % of control | dose: 200.0 mg/kg/injection, schedule: Q04DX003 (ip), vehicle: saline with Tween-80 100 % of control | dose: 400.0 mg/kg/injection, schedule: Q04DX003 (ip), vehicle: saline with Tween-80 98 % of control and 103 % of control and 97 % of control

COC(=O)NC(=O)CNc1ncc([N+](=O)[O-])s1
inactive: dose: 100.0 mg/kg/injection, schedule: Q01DX001 (ip), vehicle: saline 107 % of control | dose: 200.0 mg/kg/injection, schedule: Q01DX001 (ip), vehicle: saline 107 % of control | dose: 400.0 mg/kg/injection, schedule: Q01DX001 (ip), vehicle: saline 88 % of control

O=C(NCCNC(=O)c1cc(Cl)cc(Cl)c1O)c1cc(Cl)cc(Cl)c1O
inactive: dose: 15.0 mg/kg/injection, schedule: Q01DX005 (ip), vehicle: saline with Tween-80 92 % of control | dose: 30.0 mg/kg/injection, schedule: Q01DX005 (ip), vehicle: saline with Tween-80 92 % of control | [4] 87 % of control and 89 % of control

CCOC(=O)/C(=C(\C)N)n1[nH]c(=O)ccc1=O
inactive: dose: 100.0 mg/kg/injection, schedule: Q04DX002 (ip), vehicle: saline 98 % of control | dose: 200.0 mg/kg/injection, schedule: Q04DX002 (ip), vehicle: saline 100 % of control | dose: 400.0 mg/kg/injection, schedule: Q04DX002 (ip), vehicle: saline 100 % of control

COC(=O)C(Cc1ccccc1)NC(=O)C(Cc1c[nH]c2ccccc12)NC(=O)OC(C)(C)C (centres undefined)
inactive: dose: 50.0 mg/kg/injection, schedule: Q01DX009 (ip), vehicle: Klucel (hydroxypropylcellulose) (HPC) 95 % of control | dose: 100.0 mg/kg/injection, schedule: Q01DX009 (ip), vehicle: Klucel (hydroxypropylcellulose) (HPC) 87 % of control | dose: 200.0 mg/kg/injection, schedule: Q01DX009 (ip), vehicle: Klucel (hydroxypropylcellulose) (HPC) 108 % of control

CC(=O)OC(C(=O)OC1C[C@]2(O)C(OC(=O)c3ccccc3)C3[C@@]4(OC(C)=O)CO[C@H]4C[C@@H](OC(C)=O)[C@]3(C)C(=O)[C@@H](OC(C)=O)C(=C1C)C2(C)C)C(NC(=O)c1ccccc1)c1ccccc1 (some centres undefined)
inactive: dose: 5.0 mg/kg/injection, schedule: Q01DX009 (ip), vehicle: Klucel (hydroxypropylcellulose) (HPC) 99 % of control | dose: 10.0 mg/kg/injection, schedule: Q01DX009 (ip), vehicle: Klucel (hydroxypropylcellulose) (HPC) 105 % of control | dose: 20.0 mg/kg/injection, schedule: Q01DX009 (ip), vehicle: Klucel (hydroxypropylcellulose) (HPC) 100 % of control | dose: 40.0 mg/kg/injection, schedule: Q01DX009 (ip), vehicle: Klucel (hydroxypropylcellulose) (HPC) 104 % of control

— PubChem BioAssay AID330 (DTP/NCI, 2004)
